The test has as its target Ras-related protein Rab-2A (Canis lupus familiaris, UniProt P61105). The experiment in a line: Rab2 wildtype GTP-binding inhibitors, SAR follow-up, biochemical, additional analogs, bead-based flow cytometry, multiplex (AID 2046).
Setting [1] is: inactive by the depositor's call.

pEC50: −log10 of the molar value.

Ras-related protein Rab-2A, sequence (P61105 whole entry): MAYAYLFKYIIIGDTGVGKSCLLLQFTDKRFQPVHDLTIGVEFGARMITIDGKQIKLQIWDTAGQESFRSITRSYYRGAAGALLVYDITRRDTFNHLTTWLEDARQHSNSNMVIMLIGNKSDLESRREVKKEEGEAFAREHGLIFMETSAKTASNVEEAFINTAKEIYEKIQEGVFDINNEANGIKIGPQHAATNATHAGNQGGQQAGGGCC

Take `O=C1Nc2c(Cl)cccc2C1=C1Nc2ccccc2C1=O`: the pEC50 (usually −log10 of the EC50, conventionally taken in molar units) is 4.52. Take `O=C1Nc2c(Br)cccc2C1=C1Nc2ccccc2C1=O`: the pEC50 was 4.52. For the compound `O=C1Nc2c(F)cccc2C1=C1Nc2ccccc2C1=O`, the pEC50 was 4.52. `O=C1NC(=O)/C(=C2/C(=O)Nc3ccccc32)N1` showed a pEC50 of 4.52. As for `O=C1Nc2cccc(Br)c2/C1=C1/Cc2ccccc2C1=O`, the pEC50 under setting [1] is 4.52.

In the case of `O=C1Nc2ccc(Br)cc2C1=C1Nc2ccccc2C1=O`, the pEC50 was 4.52. `COc1ccc(S(=O)(=O)n2c(N)c(C#N)c(-c3ccccc3)c2C(=O)c2ccc(Br)cc2)cc1`: the pEC50 under setting [1] was 4.52.

For the compound `O=[N+]([O-])c1ccc(C#Cc2ccccc2)cc1`, under setting [1], the negative-log EC50 (pEC50) was 4.52. With `O=C(C#Cc1ccccc1)c1ccc(OC(F)(F)F)cc1`, the pEC50 under setting [1] is 4.52. `COc1ccc(C(=O)C#Cc2ccccc2)cc1` [1-(4-methoxyphenyl)-3-phenyl-2-propyn-1-one] gave a negative-log EC50 (pEC50) under setting [1] of 4.52. On the same count and under the same terms, then `O=C(C#Cc1ccccc1)c1ccc([N+](=O)[O-])cc1` [1-(4-nitrophenyl)-3-phenyl-2-propyn-1-one], with 4.52; and `CC(C(=O)O)c1cccc(C(=O)c2ccccc2)c1` (configuration not stated) [2-(3-benzoylphenyl)propanoic acid], with 4.52. For `COc1ccc2cc(CC(=O)O)ccc2c1` [2-(6-methoxynaphthalen-2-yl)ethanoic acid], the pEC50 under setting [1] was 4.52. Under setting [1], `CC(=O)Oc1ccccc1C(=O)O` [2-(acetyloxy)benzoic acid] had a pEC50 of 4.52.

Turning to `O=C1Nc2ccccc2/C1=C1/Nc2ccccc2C1=O` [2-[(3Z)-2-oxo-2,3-dihydro-1H-indol-3-ylidene]-2,3-dihydro-1H-indol-3-one], the pEC50 was 4.52.

`CCCCS(=O)(=O)n1c(N)c(C#N)c(-c2cc(OC)c(OC)c(OC)c2)c1C(=O)c1ccccc1` [2-amino-5-benzoyl-1-butylsulfonyl-4-(3,4,5-trimethoxyphenyl)-3-pyrrolecarbonitrile]: the pEC50 under setting [1] was 4.52. Under setting [1], `COc1ccc(S(=O)(=O)n2c(N)c(C#N)c(-c3cncc(Br)c3)c2C(=O)c2ccccc2)cc1` [2-amino-5-benzoyl-4-(5-bromo-3-pyridinyl)-1-(4-methoxyphenyl)sulfonyl-3-pyrrolecarbonitrile] had a negative-log EC50 (pEC50) of 4.52. In turn, `COc1ccc(-c2c(C#N)c(N)n(S(C)(=O)=O)c2C(=O)c2ccccc2)cc1Br` [2-azanyl-4-(3-bromanyl-4-methoxy-phenyl)-1-methylsulfonyl-5-(phenylcarbonyl)pyrrole-3-carbonitrile] showed a pEC50 under setting [1] of 4.52. The compound `COc1cc(-c2c(C#N)c(N)n(S(=O)(=O)c3c(C(C)C)cc(C(C)C)cc3C(C)C)c2C(=O)c2ccccc2)cc(OC)c1OC` [2-azanyl-5-(phenylcarbonyl)-4-(3,4,5-trimethoxyphenyl)-1-[2,4,6-tri(propan-2-yl)phenyl]sulfonyl-pyrrole-3-carbonitrile] gave a pEC50 under setting [1] of 4.52.

In turn, `O=C1N=c2ccccc2=C1c1[nH]c2ccccc2c1NO` [3-[3-(hydroxyamino)-1H-indol-2-yl]-2-indolone] gave a pEC50 of 4.52.

As to `O=C(C#Cc1ccccc1)c1cccnc1` [3-phenyl-1-pyridin-3-ylprop-2-yn-1-one], the pEC50 under setting [1] is 4.52.

On to `COC(=O)c1ccc(C(=O)C#Cc2ccccc2)cc1` [4-(1-oxo-3-phenylprop-2-ynyl)benzoic acid methyl ester], for which the pEC50 under setting [1] is 4.52. Take `N#Cc1ccc(C(=O)C#Cc2ccccc2)cc1` [4-(3-phenylprop-2-ynoyl)benzenecarbonitrile]: the pEC50 under setting [1] is 4.52. `O=C1N=c2ccc(Br)cc2=C1c1[nH]c2ccccc2c1NO` [5-bromanyl-3-[3-(oxidanylamino)-1H-indol-2-yl]indol-2-one] showed a negative-log EC50 (pEC50) of 4.19.

Compound `O=C1N=c2c(Br)cccc2=C1c1[nH]c2ccccc2c1NO` [7-bromanyl-3-[3-(oxidanylamino)-1H-indol-2-yl]indol-2-one] had a pEC50 of 4.18. On to `O=C1N=c2c(Cl)cccc2=C1c1[nH]c2ccccc2c1NO` [7-chloro-3-[3-(hydroxyamino)-1H-indol-2-yl]-2-indolone], for which the pEC50 is 4.52.

The compound `O=C1N=c2c(F)cccc2=C1c1[nH]c2ccccc2c1NO` [7-fluoro-3-[3-(hydroxyamino)-1H-indol-2-yl]-2-indolone] gave a pEC50 of 4.52. Compound `O=C1Nc2c(Br)cccc2/C1=C1/Cc2ccccc2C1=O` [(3E)-7-bromo-3-(3-oxo-1H-inden-2-ylidene)-1H-indol-2-one] gave a pEC50 under setting [1] of 4.52. `O=C1NC(=S)N/C1=C1\C(=O)Nc2ccccc21` [(3Z)-3-(5-oxo-2-sulfanylideneimidazolidin-4-ylidene)-1H-indol-2-one] had a negative logarithm of the EC50 (pEC50) of 4.52. Turning to `CC(C)Cc1ccc([C@H](C)C(=O)O)cc1` [(S)-2-(4-Isobutyl-phenyl)-propionic acid], under setting [1], the pEC50 was 4.52. As to `O=C1Nc2ccccc2/C1=C1/Cc2ccccc2C1=O` [UNM-0000305763], the pEC50 under setting [1] is 4.52. For the compound `N#Cc1c(-c2ccc(Cl)cc2)c(C(=O)c2ccccc2)n(S(=O)(=O)c2ccc([N+](=O)[O-])cc2)c1N` [UNM-0000305780], under setting [1], the pEC50 is 4.52. Regarding `COc1ccc(S(=O)(=O)n2c(N)c(C#N)c(-c3cc(Br)c(OC)c(OC)c3)c2C(=O)c2ccccc2)cc1` [UNM-0000305782], the pEC50 under setting [1] was 4.52. For `O=C(C#Cc1ccccc1)c1ccccc1[N+](=O)[O-]` [UNM-0000306038], the pEC50 under setting [1] was 4.52.

`O=C(C#Cc1ccccc1)c1ccccc1` [UNM-0000306039]: the pEC50 under setting [1] was 4.52. Same read-out and setting: then `O=C(C#Cc1ccccc1)c1ccc(Cl)cc1` [UNM-0000306055], with 4.52; and `O=C(C#Cc1ccccc1)c1ccc(F)cc1` [UNM-0000306059], with 4.52. For the compound `COc1ccc2cc([C@H](C)C(=O)O)ccc2c1` [UNM-0000306098], the pEC50 is 4.52. Take `CC1=C(CC(=O)O)c2cc(F)ccc2/C1=C/c1ccc([S+](C)[O-])cc1` (configuration not stated) [UNM-0000306136]: the pEC50 under setting [1] was 4.52. In the case of `C[C@@H](C(=O)O)c1cccc(Oc2ccccc2)c1` [calcium;2-(3-phenoxyphenyl)propanoic acid;hydrate], the pEC50 is 4.52.

With `COc1ccc2cc([C@@H](C)C(=O)O)ccc2c1` [sodium;(2R)-2-(6-methoxy-2-naphthalenyl)propanoate], the pEC50 was 5.76.

In turn, `CSc1ccc(/C=C2/C(C)=C(CC(=O)O)c3cc(F)ccc32)cc1` [{6-Fluoro-2-methyl-3-[1-(4-methylsulfanyl-phenyl)-meth-(E)-ylidene]-3H-inden-1-yl}-acetic acid] had a pEC50 under setting [1] of 4.52.

The record behind these values is BindingDB's records for doi:10.7270/Q2V40SNS (Nmmlsc, 2009).
